Assay results from patent US12653800B2, “Small molecule inhibitors of TLR2 signaling” (University of Maryland, Baltimore, priority 2015, dated 2026).

Columns and labels:
[1] = target: T1, interaction of TLR2 with MyD88 (Homo sapiens, UniProt O60603); assay: Co-immunoprecipitation of TLR2 with MyD88 in THP-1 cells; format: cell-based; details: C29 150 μM, P3C 50 ng/mL, 15 and 30 minutes, statistical significance at 30 minutes
T1 construct: host or cells: THP-1 cells, PMA 20 ng/mL for 24 hrs, P3C-stimulated
Experimental: FIG. 2. C29 inhibits ligand-induced interaction of TLR2 with MyD88 and blocks MAPK and NF-κβ activation. (A) THP-1 cells were cultured in the presence of PMA (20 ng/mL) for 24 hrs and washed twice in media. THP-1 human monocytes were pretreated with media, vehicle (195 μM NaOH), or C29 (150 μM) for 1 hr and treated with P3C (50 ng/mL) in the presence of media, vehicle, or C29 for 15 or 30 min. Co-immunoprecipitation (IP) was carried out using anti-MyD88 antibody and Western analysis (IB) using whole cell lysates. (B) Densitometry analysis (mean±SEM) of 3 independent experiments as shown in (A). (C) Murine peritoneal macrophages were pretreated for 1 hr with media, vehicle (65 μM NaOH), or C29 (50 μM) and treated with P3C (50 ng/mL) for 5-30 min in the presence of media, vehicle, or C29. IB was performed using whole cell lysates and antibodies directed against the signaling intermediates indicated. β-actin was probed as a loading protein. […]
Cells were treated and washed once with 1×PBS and lysed using buffer containing 20 mM HEPES (pH 7.4), 150 mM NaCl, 1 mM EDTA, 1 mM EGTA (pH 8.0), 50 mM NaF, 0.5% Triton X-100, 1 mM Na3VO4, 1 mM DTT, 1 mM PMSF, and protease inhibitor (Roche Applied Science, Indianapolis, IN). Cells were harvested and protein was quantified using BCA Protein assay reagents (Thermo Scientific/Pierce, Rockford, IL). […]

[2] = Thin layer chromatography of C29 in NaOH or organic solvent (imine cleavage); format: physicochemical
Experimental: FIG. 11. C29 L reproduces the TLR2 inhibitory activity observed with C29. (A) C29 dissolved in NaOH generates ortho-vanillin (“C29L”) and 3-amino-2-methylbenzoic acid (“C29R”). (B) TLC plate coated with silica was spotted with C29 dissolved in 65 μM NaOH, C29 dissolved in ethyl acetate (organic solvent), and a mixture of both. The plate was placed in solvent and visualized using a KMnO4 stain. (C, D) Total RNA was extracted from murine peritoneal macrophages that had been pretreated for 1 hr with vehicle (65 μM NaOH), C29 (25 μM or 50 μM), C29L (25 μM or 50 μM), or C29R (25 μM or 50 μM) and then stimulated with P3C (50 ng/mL), P2C (100 ng/mL), or LPS (100 ng/mL) for 1 hr in the presence of vehicle, C29, C29L, or C29R. TNF-α mRNA was measured as described in FIG. 1, panel D. Quantitative real-time results are representative of 2 independent experiments each carried out in duplicate (*, p≤0.05; **, p≤0.01; ***, p≤0.001; ****, p≤0.0001).
To preclude cytotoxicity from DMSO, C29 was dissolved in 65 μM NaOH in H2O. […] The two cleavage products, C29L and C29R, were tested to determine if either would reproduce the TLR2 inhibitory activity of C29.

T1 sequence (O60603 21-784): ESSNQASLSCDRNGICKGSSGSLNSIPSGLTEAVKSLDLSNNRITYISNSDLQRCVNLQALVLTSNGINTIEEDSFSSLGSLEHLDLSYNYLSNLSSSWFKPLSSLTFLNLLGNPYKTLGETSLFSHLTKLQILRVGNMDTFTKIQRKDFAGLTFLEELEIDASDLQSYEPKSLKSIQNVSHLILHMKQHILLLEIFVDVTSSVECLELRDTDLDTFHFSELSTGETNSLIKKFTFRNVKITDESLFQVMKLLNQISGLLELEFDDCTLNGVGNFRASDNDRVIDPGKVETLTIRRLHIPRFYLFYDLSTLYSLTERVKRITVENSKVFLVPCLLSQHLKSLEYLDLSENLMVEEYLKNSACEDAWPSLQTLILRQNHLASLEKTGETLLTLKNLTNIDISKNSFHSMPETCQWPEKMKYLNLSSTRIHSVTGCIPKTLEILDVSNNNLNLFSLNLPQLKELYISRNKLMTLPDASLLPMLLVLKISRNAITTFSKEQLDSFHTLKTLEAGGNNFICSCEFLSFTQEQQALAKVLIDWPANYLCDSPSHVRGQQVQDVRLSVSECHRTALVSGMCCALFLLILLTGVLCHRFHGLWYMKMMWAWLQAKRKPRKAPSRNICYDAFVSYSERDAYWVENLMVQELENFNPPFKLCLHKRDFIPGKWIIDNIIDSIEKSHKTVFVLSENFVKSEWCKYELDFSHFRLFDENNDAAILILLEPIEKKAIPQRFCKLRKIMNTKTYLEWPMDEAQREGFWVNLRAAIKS

Question: What does the source list for `COc1cccc(/C=N/c2cccc(C(=O)O)c2C)c1O` [Compound C29]?
Answer: interaction between endogenous TLR2 and MyD88 (co-IP) [1]: diminished the interaction; stability of imine linkage (TLC) ([2]; dissolved in 65 μM NaOH in H2O): cleaved into these two species; stability of imine linkage (TLC) ([2]; dissolved in an organic solvent (ethyl acetate)): not when dissolved in an organic solvent
